Measured values: publication PMC10907374, “G2019S selective LRRK2 kinase inhibitor abrogates mitochondrial DNA damage” (NPJ Parkinson's Disease, 2024)
“And” between values parts separate entries of the source, which are not always exact repeats. Equal entries are not always repeated. “Also recorded” adds a separate entry of the source.

Columns and labels:
[1] = biological target: T1, LRRK2 in healthy control lymphoblastoid cells (LCLs) (Homo sapiens, UniProt Q5S007); assay: LRRK2 pSer935 western immunoblot in healthy control-derived LCLs; format: cell-based; conditions: 10 and 100 nM, 2 h
T1 construct: Due to the differing endogenous LRRK2 levels; host or cells: healthy subject control-derived lymphoblastoid cell lines (n = 2)
Protocol: (§1) PD patient G2019S LRRK2 (n = 2) and healthy subject control (n = 2)-derived LCLs were obtained from the NINDS Coriell biorepository (ID numbers are ND00011, ND00264, ND01618, ND02559). […] LCLs were cultured at 37 °C, 5% CO2, in RPMI-1640 (Sigma-Aldrich, R8758), 15% heat-inactivated fetal bovine serum (VWR Seradigm, 97068-091) and 0.5% Penicillin/Streptomycin (Corning, 30-002-CI). […] All in vitro experiments were repeated at least three times from distinct samples.
(§2) For LRRK2-WT or G2019S-LRRK2, ~1.5 million cells were pelleted and resuspended in 75 μl of lysis buffer [(RIPA Buffer (Sigma-Aldrich, R0278-50ML), protease inhibitor cocktail (Sigma-Aldrich, P8340), and Halt phosphatase inhibitor cocktail (Thermo Fisher, 78420)]. For LCLs, five million cells were pelleted and resuspended in 100 µl of lysis buffer. For both types of cells lysates were centrifuged at 10,000 × g after a 10 min incubation on ice, and the supernatant was collected. Protein was quantified using the DC protein assay (Bio-Rad, 5000112). In total, 50 μg of protein was loaded for HEK293 LRRK2-WT or G2019S-LRRK2 cells. […] Fluorescence intensities were quantified using ImageStudio Lite software (LI-COR), and the signal from the protein of interest was normalized to the fluorescence intensity of either LRRK2 or β-actin. […]

[2] = biological target: T2, human LRRK2 (WT-LRRK2) (Homo sapiens, UniProt Q5S007); assay: LRRK2 pSer935 quantitative western immunoblot in HEK293 cells stably overexpressing WT-LRRK2; format: cell-based
T2 construct: WT-LRRK2 or G2019S-LRRK2 overexpressing cells show expression of LRRK2 pSer1292 and full-length LRRK2; expressed in transfected cells
Protocol: (§3) Cells were plated at a density of 0.3 × 10^6 cells in a 6-well dish and treated at ~40–50% confluency. At the time of harvest, cells were collected and either protein collected or DNA extracted as described below.
as §2, with “cells. Due to the differing endogenous LRRK2 levels, 40 µg of ND02559, 60 µg of ND00264, or 100 µg of ND00011 and ND01618 of protein sample was loaded. Protein samples were incubated at 100 °C for 5 min with NuPAGE Sample loading dye (Thermo Fisher, NP0007) and dithiothreitol as reducing agent.” for “cells.”

[3] = design: method as in PMID 33197196; conditions: cited from earlier work
[4] = biological target: T3, G2019S variant of human LRRK2 (G2019S-LRRK2) (Homo sapiens, UniProt Q5S007, G2019S); assay: LRRK2 pSer1292 autophosphorylation western immunoblot in HEK293 cells stably overexpressing G2019S-LRRK2; format: cell-based; conditions: for decrease in LRRK2 pSer1292 levels: G2019S-LRRK2 cells, 2 h
T3 construct: WT-LRRK2 or G2019S-LRRK2 overexpressing cells show expression of LRRK2 pSer1292 and full-length LRRK2; expressed in transfected cells
Protocol: as §3
(§4) For LRRK2-WT or G2019S-LRRK2, ~1.5 million cells were pelleted and resuspended in 75 μl of lysis buffer [(RIPA Buffer (Sigma-Aldrich, R0278-50ML), protease inhibitor cocktail (Sigma-Aldrich, P8340), and Halt phosphatase inhibitor cocktail (Thermo Fisher, 78420)]. For LCLs, five million cells were pelleted and resuspended in 100 µl of lysis buffer. For both types of cells lysates were centrifuged at 10,000 × g after a 10 min incubation on ice, and the supernatant was collected. Protein was quantified using the DC protein assay (Bio-Rad, 5000112). In total, 50 μg of protein was loaded for HEK293 LRRK2-WT or G2019S-LRRK2 cells. Due to the differing endogenous LRRK2 levels, 40 µg of ND02559, 60 µg of ND00264, or 100 µg of ND00011 and ND01618 of protein sample was loaded. Protein samples were incubated at 100 °C for 5 min with NuPAGE Sample loading dye (Thermo Fisher, NP0007) and dithiothreitol as reducing agent. After 4–20% SDS-PAGE, the blots were blocked in 5% w/v nonfat dry milk in 1X PBST (0.05% Tween 20). For our investigations, the following primary antibodies were used: mouse anti-LRRK2 N241a (Antibodies INC, 75-253, 1:5000 for HEK293 cells and 1:2000 for LCLs), rabbit anti-LRRK2 pS935 (Abcam, ab133450, 1:10,000 for HEK293 cells and 1:2000 for LCLs), mouse anti-β-actin (Novus, 8H10D10, 1:10,000), and rabbit anti-LRRK2 pS1292 (Abcam, ab203181, 1:500). The blots were then probed with fluorescent-labeled secondary antibodies, IRDye donkey anti-mouse and anti-rabbit at 1:10,000 (LI-COR, 926-32212, 926-68072), and scanned using an Odyssey Imaging scanner (LI-COR). Fluorescence intensities were quantified using ImageStudio Lite software (LI-COR), and the signal from the protein of interest was normalized to the fluorescence intensity of either LRRK2 or β-actin. Values were averaged from at least three technical replicates within a cell line, or two biological replicates (two healthy control lines and two PD LCLs). All blots were derived from the same experiment and processed in parallel.

[5] = biological target: T3, G2019S variant of human LRRK2 (G2019S-LRRK2); assay: LRRK2 pSer935 quantitative western immunoblot in HEK293 cells stably overexpressing G2019S-LRRK2; format: cell-based
Protocol: as §3
as §4, with “Values were averaged from at least three technical replicates within a cell line, or two biological replicates (two healthy control lines and two PD LCLs). All blots were derived from the same experiment and processed in parallel.” left out

[6] = tested on: LRRK2 in heterozygous G2019S LRRK2 PD patient-derived LCLs; assay: LRRK2 pSer935 western immunoblot in heterozygous G2019S LRRK2 PD patient-derived LCLs; format: cell-based, human; conditions: for decrease in LRRK2 pSer935 levels: heterozygous G2019S LRRK2 PD LCLs
Protocol: as §1, §4

[7] = tested on: heterozygous G2019S LRRK2 PD patient-derived LCLs; design: method as in PMID 33057100; conditions: acute treatment (1.5 h) ref 49; cited from earlier work
[8] = tested on: R1441C LRRK2 cultures; design: method as in PMID 37384414; conditions: R1441C LRRK2 cultures ref 71; cited from earlier work

T3 sequence (Q5S007 whole entry G2019S): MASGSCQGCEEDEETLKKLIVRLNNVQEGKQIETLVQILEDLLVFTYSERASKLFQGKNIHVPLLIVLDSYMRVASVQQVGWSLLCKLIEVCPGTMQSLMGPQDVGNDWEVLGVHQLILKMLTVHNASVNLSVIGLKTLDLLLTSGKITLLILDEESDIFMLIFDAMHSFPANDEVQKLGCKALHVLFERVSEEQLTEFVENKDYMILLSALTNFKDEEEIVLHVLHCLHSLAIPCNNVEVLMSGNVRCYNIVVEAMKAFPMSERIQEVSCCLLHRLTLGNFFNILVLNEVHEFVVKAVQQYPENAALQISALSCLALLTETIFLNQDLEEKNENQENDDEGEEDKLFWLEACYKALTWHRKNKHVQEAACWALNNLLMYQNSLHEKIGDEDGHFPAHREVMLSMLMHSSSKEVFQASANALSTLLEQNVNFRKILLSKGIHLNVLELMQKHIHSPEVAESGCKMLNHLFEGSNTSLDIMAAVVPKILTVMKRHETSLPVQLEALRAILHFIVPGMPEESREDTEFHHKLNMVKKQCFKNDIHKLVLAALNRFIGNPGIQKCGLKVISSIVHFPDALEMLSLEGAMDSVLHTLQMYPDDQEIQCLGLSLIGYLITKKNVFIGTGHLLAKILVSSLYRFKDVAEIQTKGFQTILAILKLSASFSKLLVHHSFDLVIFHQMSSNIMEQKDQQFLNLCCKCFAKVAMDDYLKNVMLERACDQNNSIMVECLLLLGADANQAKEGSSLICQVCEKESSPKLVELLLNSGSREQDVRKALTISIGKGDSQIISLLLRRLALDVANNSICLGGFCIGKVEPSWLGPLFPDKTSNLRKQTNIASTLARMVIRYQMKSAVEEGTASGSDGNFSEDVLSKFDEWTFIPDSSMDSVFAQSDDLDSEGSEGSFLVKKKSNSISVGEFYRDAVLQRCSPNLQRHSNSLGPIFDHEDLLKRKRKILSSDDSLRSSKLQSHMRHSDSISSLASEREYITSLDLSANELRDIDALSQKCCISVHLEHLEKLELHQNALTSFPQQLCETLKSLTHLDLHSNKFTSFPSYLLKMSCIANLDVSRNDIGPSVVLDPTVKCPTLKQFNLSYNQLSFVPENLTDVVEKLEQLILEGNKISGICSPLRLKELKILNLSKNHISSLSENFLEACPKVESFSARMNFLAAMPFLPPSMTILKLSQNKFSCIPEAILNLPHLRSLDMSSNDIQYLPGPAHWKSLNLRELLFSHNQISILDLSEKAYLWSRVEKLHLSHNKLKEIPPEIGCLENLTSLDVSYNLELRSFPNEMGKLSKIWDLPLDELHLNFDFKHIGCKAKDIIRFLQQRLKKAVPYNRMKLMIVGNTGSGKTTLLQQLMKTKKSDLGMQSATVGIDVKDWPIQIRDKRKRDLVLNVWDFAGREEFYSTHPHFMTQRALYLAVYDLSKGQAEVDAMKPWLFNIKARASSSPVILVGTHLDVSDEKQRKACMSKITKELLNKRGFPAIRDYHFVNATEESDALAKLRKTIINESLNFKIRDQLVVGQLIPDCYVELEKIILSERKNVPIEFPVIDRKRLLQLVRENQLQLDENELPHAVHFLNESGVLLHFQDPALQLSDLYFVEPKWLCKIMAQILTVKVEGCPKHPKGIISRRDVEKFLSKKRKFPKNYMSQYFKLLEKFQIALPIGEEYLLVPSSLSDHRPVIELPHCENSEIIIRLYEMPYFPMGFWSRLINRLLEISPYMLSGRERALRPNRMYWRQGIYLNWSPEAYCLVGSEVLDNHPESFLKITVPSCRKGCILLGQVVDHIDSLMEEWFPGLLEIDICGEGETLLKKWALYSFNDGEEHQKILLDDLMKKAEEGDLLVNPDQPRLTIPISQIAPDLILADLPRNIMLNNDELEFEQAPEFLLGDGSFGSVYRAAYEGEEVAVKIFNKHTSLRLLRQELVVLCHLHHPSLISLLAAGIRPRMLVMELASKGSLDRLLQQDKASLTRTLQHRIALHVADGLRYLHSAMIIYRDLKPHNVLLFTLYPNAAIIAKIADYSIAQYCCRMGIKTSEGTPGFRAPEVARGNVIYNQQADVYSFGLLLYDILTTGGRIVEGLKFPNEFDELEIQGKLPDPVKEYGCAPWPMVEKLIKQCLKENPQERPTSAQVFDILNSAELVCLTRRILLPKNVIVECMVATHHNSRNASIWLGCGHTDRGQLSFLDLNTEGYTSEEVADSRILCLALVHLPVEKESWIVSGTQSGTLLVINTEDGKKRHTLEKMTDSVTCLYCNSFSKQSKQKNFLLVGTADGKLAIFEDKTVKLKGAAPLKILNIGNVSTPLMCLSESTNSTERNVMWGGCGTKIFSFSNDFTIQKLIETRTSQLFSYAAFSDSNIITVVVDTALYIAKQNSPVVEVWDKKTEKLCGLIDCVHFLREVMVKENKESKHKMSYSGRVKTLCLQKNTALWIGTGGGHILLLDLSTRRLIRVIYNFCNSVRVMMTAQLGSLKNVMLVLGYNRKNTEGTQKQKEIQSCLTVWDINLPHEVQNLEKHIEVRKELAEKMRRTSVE
T1 sequence (Q5S007 whole entry): as the sequence (Q5S007 whole entry G2019S) above, with S2019G counted along it

SMILES | effect on LRRK2 pSer935 (in words) [1] | IC50 ([2]; WT LRRK2 HEK293 cell line, 2 h treatment, 10 nM-1 μM titration, read-out: calculated half-maximal inhibition (IC50) of LRRK2 pSer935) [nM] | effect on LRRK2 pSer935 over the concentration range (in words) ([2]; WT-LRRK2 cells, 10 nM up to 1 μM, 2 h) | brain penetration [3] | IC50 ([4]; G2019S-LRRK2 HEK293 cells, 2 h treatment, read-out: calculated IC50 of LRRK2 pSer1292) [nM] | decrease in LRRK2 pSer1292 levels ([4]; 10 nM) [%] | decrease in LRRK2 pSer1292 levels ([4]; 10 nM, listed as EB-42618) | decrease in LRRK2 pSer1292 levels ([4]; 100 nM) | IC50 ([5]; G2019S LRRK2 HEK293 cell line, 2 h treatment, 10 nM-1 μM titration, read-out: calculated half-maximal inhibition (IC50) of LRRK2 pSer935) [nM] | decrease in LRRK2 pSer935 levels ([5]; G2019S-LRRK2 cells, 10 nM, 2 h) | fold more potent on G2019S LRRK2 than WT LRRK2 (pS935 IC50) ([5]; HEK293 overexpressing cells) [fold] | decrease in LRRK2 pSer935 levels ([6]; 10 nM, 2 h) | decrease in LRRK2 pSer935 levels ([6]; 100 nM, 2 h) [%] | decrease of LRRK2 pSer935 ([6]; human PD patient-derived cells heterozygous for G2019S LRRK2, concentration not given) | mtDNA damage [7] | effect on LRRK2 pSer935 (in words) ([6]; G2019S LRRK2 PD LCLs, 10 and 100 nM, 2 h) | impaired mitophagy and other mitochondrial parameters [8]
CC1=C(C(=O)Nc2ccc3[nH]nc(-c4ccnc(N5CCOCC5)c4)c3c2)C(C)(C)n2nnnc2N1C [EB-42168] | did not impact; also recorded: no change; also recorded: without a change | > 5000 | no inhibition; also recorded: no change; also recorded: no detectable effect | poorly brain penetrant | 44 | 30 | dephosphorylated | ~ 70% and 65% | 54 | no significant dephosphorylation | > 90 | ~ 30% and 25% | ~40 | about 40% |  |  | 
C[C@@H]1CN(c2cc(-c3n[nH]c4ccc(OC5(C)CC5)cc34)ncn2)C[C@H](C)O1 [MLi-2, reference compound] |  |  |  |  |  |  |  |  |  |  |  |  |  |  | restored mtDNA damage to healthy control levels | almost completely; also recorded: almost complete | not corrected
